Data published in patent US10166218B2, “3-(1H-indol-2-yl)-1H-pyrazolo[3,4-C]pyridines and therapeutic uses thereof” (Samumed, LLC, priority 2015, dated 2019).

Tests used:
Type in all cases: cell-based
[1] = tested on: Wnt activity (Sp5-Luc reporter, TCF/LEF binding sites) in SW480 colon carcinoma cells; test: Screening assay for Wnt activity: Sp5-Luc reporter gene assay in stably transduced SW480 cells; details: Homo sapiens, overnight incubation
In short: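 Luminescence read-out (BrightGlo) from stable Sp5-Luc SW480 cells, normalized to DMSO-only wells. Cells were treated overnight at 37° C in 1% FBS medium across a 1:3, 10-point series starting at 10 μM. EC50 from variable-slope four-parameter regression; percent inhibition at 10 μM given where EC50 >10 μM.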

SW480 colon cancer cells = test: Cell viability assay (CellTiter-Blue) in SW480 colon cancer cells; details: Homo sapiens, 96 h, four days; for inhibition at 10 µM: read-out: percent inhibition at 10 μM (given for EC50 of >10 μM); for EC50: CellTiter-Blue
In short: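 Approximately 2×10^3 SW480 cells per well are seeded with compound (8 points, threefold steps, top 10 μM) and incubated four days at 37 °C. CellTiter-Blue is then added for about 3 h and fluorescence read. Non-linear regression gives EC50; for values beyond 10 μM, percent inhibition at that concentration is listed.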

[2] = tested on: primary human fibroblasts derived from IPF patients (LL29 cells) treated with TGF-β1; α-smooth muscle actin (αSMA); test: Inhibition of the fibrotic process: αSMA staining in TGF-β1 treated primary human fibroblasts from IPF patients (LL29 cells); details: Fibroblast, 96 h, TGF-β1 20 ng/mL, 4 days; for EC50: % cells positive for αSMA; for inhibition at 10 µM: αSMA, read-out: percent inhibition at 10 μM (given for EC50 of >10 μM)
In short: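 Compound dilutions from 10 μM down to […] are dispensed, LL29 cells added in F12 with 1% FBS, and TGF-β1 (20 ng/mL) follows after 1 h. After 4 days, live-cell αSMA positivity is measured by immunofluorescence and normalized to TGF-β1-treated wells to derive EC50.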

Row | SMILES | EC50 [1] [nM] | EC50 (SW480 colon cancer cells) [nM] | inhibition at 10 µM (SW480 colon cancer cells) [%] | EC50 [2] [nM] | inhibition at 10 µM [2] [%]
1 | c1cc(-c2ccncc2)c2cc(-c3n[nH]c4cnc(-c5cncnc5)cc34)[nH]c2c1 [Compound 139, 3-(4-(Pyridin-4-yl)-1H-indol-2-yl)-5-(pyrimidin-5-yl)-1H-pyrazolo[3,4-c]pyridine] | 1230 | > 10000 | 15.5 | 238 | 
2 | Cc1ccncc1-c1cc2c(-c3cc4c(-c5ccccn5)cccc4[nH]3)n[nH]c2cn1 [Compound 145, 5-(4-Methylpyridin-3-yl)-3-(4-(pyridin-2-yl)-1H-indol-2-yl)-1H-pyrazolo [3,4-c]pyridine] | 567 | 814 |  | 223 | 
3 | CN(C)Cc1cncc(-c2cc3c(-c4cc5c(-c6ccccn6)cccc5[nH]4)n[nH]c3cn2)c1 [Compound 153, N,N-Dimethyl-1-(5-(3-(4-(pyridin-2-yl)-1H-indol-2-yl)-1H-pyrazolo[3,4-c]pyridin-5-yl)pyridin-3-yl)methanamine] | 711 | 2060 |  | 461 | 
4 | CCCCC(=O)Nc1cncc(-c2cc3c(-c4cc5c(-c6ccccn6)cccc5[nH]4)n[nH]c3cn2)c1 [Compound 159, N-(5-(3-(4-(Pyridin-2-yl)-1H-indol-2-yl)-1H-pyrazolo[3,4-c]pyridin-5-yl)pyridin-3-yl)pentanamide] | 3480 | 2810 |  | 269 | 
5 | CC(C)(C)CC(=O)Nc1cncc(-c2cc3c(-c4cc5ccccc5[nH]4)n[nH]c3cn2)c1 [Compound 268, N-(5-(3-(1H-Indol-2-yl)-1H-pyrazolo[3,4-c]pyridin-5-yl)pyridin-3-yl)-3,3-dimethylbutanamide] | 615 | > 10000 | 4.5 | 9980 | 
6 | c1cc(-c2ccoc2)c2cc(-c3n[nH]c4cnc(-c5cncc(CN6CCCCC6)c5)cc34)[nH]c2c1 [Compound 323, 3-(4-(Furan-3-yl)-1H-indol-2-yl)-5-(5-(piperidin-1-ylmethyl)pyridin-3-yl)-1H-pyrazolo[3,4-c]pyridine] | 2770 | 2340 |  | 261 | 
7 | CN(C)CCNc1cc(F)cc(-c2cccc3[nH]c(-c4n[nH]c5cnc(-c6cncc(N)c6)cc45)cc23)c1 [Compound 451, N^1-(3-(2-(5-(5-Aminopyridin-3-yl)-1H-pyrazolo[3,4-c]pyridin-3-yl)-1H-indol-4-yl)-5-fluorophenyl)-N^2,N^2-dimethylethane-1,2-diamine] | 448 | 659 |  | 46 | 
8 | CCNCc1cncc(-c2cc3c(-c4cc5c(-c6cc(F)cc(NCCN(C)C)c6)cccc5[nH]4)n[nH]c3cn2)c1 [Compound 454, N^1-(3-(2-(5-(5-((Ethylamino)methyl)pyridin-3-yl)-1H-pyrazolo[3,4-c]pyridin-3-yl)-1H-indol-4-yl)-5-fluorophenyl)-N^2,N^2-dimethylethane-1,2-diamine] | 1260 | 1480 |  | 583 | 
9 | CS(=O)(=O)NCc1cc(F)cc(-c2cccc3[nH]c(-c4n[nH]c5cnc(-c6cncc(NC(=O)c7ccccc7)c6)cc45)cc23)c1 [Compound 487, N-(5-(3-(4-(3-Fluoro-5-(methylsulfonamidomethyl)phenyl)-1H-indol-2-yl)-1H-pyrazolo[3,4-c]pyridin-5-yl)pyridin-3-yl)benzamide] | 800 | > 10000 | 45.4 | 5010 | 
10 | Nc1cncc(-c2cc3c(-c4cc5ncccc5[nH]4)n[nH]c3cn2)c1 [Compound 507, 5-(3-(1H-Pyrrolo[3,2-b]pyridin-2-yl)-1H-pyrazolo[3,4-c]pyridin-5-yl) pyridin-3-amine] | 248 | 1230 |  | > 10000 | 0

Continued, in another order:

Row | EC50 [1] [nM] | EC50 (SW480 colon cancer cells) [nM] | SMILES | inhibition at 10 µM (SW480 colon cancer cells) [%] | EC50 [2] [nM] | inhibition at 10 µM [2] [%]
11 | 255 | 1920 | Nc1cncc(-c2cc3c(-c4cc5c(-c6ccccn6)cccc5[nH]4)n[nH]c3cn2)c1 [Compound 143, 5-(3-(4-(Pyridin-2-yl)-1H-indol-2-yl)-1H-pyrazolo[3,4-c]pyridin-5-yl) pyridin-3-amine] |  | 98 | 
12 | 2420 | > 10000 | O=C(Nc1cncc(-c2cc3c(-c4cc5c(N6CCCCC6)cccc5[nH]4)n[nH]c3cn2)c1)C1CC1 [Compound 188, N-(5-(3-(4-(Piperidin-1-yl)-1H-indol-2-yl)-1H-pyrazolo[3,4-c]pyridin-5-yl)pyridin-3-yl)cyclopropanecarboxamide] | 25.3 | 1370 | 
13 | 1830 | 6210 | FC1(F)CCN(Cc2cncc(-c3cc4c(-c5cc6c(N7CCCCC7)cccc6[nH]5)n[nH]c4cn3)c2)C1 [Compound 194, 5-(5-((3,3-Difluoropyrrolidin-1-yl)methyl)pyridin-3-yl)-3-(4-(piperidin-1-yl)-1H-indol-2-yl)-1H-pyrazolo[3,4-c]pyridine] |  | 694 | 
14 | 700 | 1950 | CC(C)C(=O)Nc1cncc(-c2cc3c(-c4cc5c(N6CCN(C)CC6)cccc5[nH]4)n[nH]c3cn2)c1 [Compound 233] |  | > 10000 | 74.5
15 | 1970 | > 10000 | CN1CCN(c2cccc3[nH]c(-c4n[nH]c5cnc(-c6cncc(NC(=O)C7CCC7)c6)cc45)cc23)CC1 [Compound 245] | 64.6 | 4610 | 
16 | 199 | 4920 | O=C(Nc1cncc(-c2cc3c(-c4cc5ccccc5[nH]4)n[nH]c3cn2)c1)c1ccccc1 [Compound 263, N-(5-(3-(1H-Indol-2-yl)-1H-pyrazolo[3,4-c]pyridin-5-yl)pyridin-3-yl) benzamide] |  | 65 | 
17 | 390 | 1640 | c1ccc2[nH]c(-c3n[nH]c4cnc(-c5cncc(CN6CCCC6)c5)cc34)cc2c1 [Compound 266, 3-(1H-Indol-2-yl)-5-(5-(pyrrolidin-1-ylmethyl)pyridin-3-yl)-1H-pyrazolo [3,4-c]pyridine] |  | 143 | 
18 | 635 | > 10000 | O=C(Nc1cncc(-c2cc3c(-c4cc5ccccc5[nH]4)n[nH]c3cn2)c1)C1CCCCC1 [Compound 275, N-(5-(3-(1H-Indol-2-yl)-1H-pyrazolo[3,4-c]pyridin-5-yl)pyridin-3-yl) cyclohexanecarboxamide] | 35.4 | 3270 | 
19 | 386 | 437 | CN(C)CCNc1cc(F)cc(-c2cccc3[nH]c(-c4n[nH]c5cnc(-c6cncc(NC(=O)C(C)(C)C)c6)cc45)cc23)c1 [Compound 456, N-(5-(3-(4-(3-((2-(Dimethylamino)ethyl)amino)-5-fluorophenyl)-1H-indol-2-yl)-1H-pyrazolo[3,4-c]pyridin-5-yl)pyridin-3-yl)pivalamide] |  | 444 | 
20 | 1310 | 964 | CN(C)CCNc1cc(F)cc(-c2cccc3[nH]c(-c4n[nH]c5cnc(-c6cncc(CN(C)C)c6)cc45)cc23)c1 [Compound 461, N^1-(3-(2-(5-(5-((Dimethylamino)methyl)pyridin-3-yl)-1H-pyrazolo[3,4-c]pyridin-3-yl)-1H-indol-4-yl)-5-fluorophenyl)-N^2,N^2-dimethylethane-1,2-diamine] |  | 1180 | 
21 | 3750 | 2860 | CN(C)CCNc1cc(F)cc(-c2cccc3[nH]c(-c4n[nH]c5cnc(-c6ccccn6)cc45)cc23)c1 [Compound 476, N^1-(3-Fluoro-5-(2-(5-(pyridin-2-yl)-1H-pyrazolo[3,4-c]pyridin-3-yl)-1H-indol-4-yl)phenyl)-N^2,N^2-dimethylethane-1,2-diamine] |  | 582 | 
22 | 195 | 1930 | Cc1ccncc1-c1cc2c(-c3cc4c(-c5cc(F)cc(CNS(C)(=O)=O)c5)cccc4[nH]3)n[nH]c2cn1 [Compound 481, N-(3-Fluoro-5-(2-(5-(4-methylpyridin-3-yl)-1H-pyrazolo[3,4-c]pyridin-3-yl)-1H-indol-4-yl)benzyl)methanesulfonamide] |  | 712 | 
23 | 560 | 4000 | CS(=O)(=O)NCc1cc(F)cc(-c2cccc3[nH]c(-c4n[nH]c5cnc(-c6cncnc6)cc45)cc23)c1 [Compound 503, N-(3-Fluoro-5-(2-(5-(pyrimidin-5-yl)-1H-pyrazolo[3,4-c]pyridin-3-yl)-1H-indol-4-yl)benzyl)methanesulfonamide] |  | > 10000 | 0
24 | 2310 | > 10000 | c1cnc2cc(-c3n[nH]c4cnc(-c5cncc(CNCC6CCCC6)c5)cc34)[nH]c2c1 [Compound 529, 1-(5-(3-(1H-Pyrrolo[3,2-b]pyridin-2-yl)-1H-pyrazolo[3,4-c]pyridin-5-yl)pyridin-3-yl)-N-(cyclopentylmethyl)methanamine] | 0 | > 10000 | 0
